In one assay the target is T1, ERβ (Homo sapiens, UniProt Q92731).
T1 construct: expressed in transfected cells; host or cells: U-2 OS
As to the kind of experiment: Transient transfection of U-2 OS cells with ERβ and ERE luciferase reporter, with or without COASTER. Conditions: 10^−8 M ligand, ± SD triplicate. The format is cell-based. How it is done:
(§1) To test the functional role of COASTER in a mammalian setting, the full length COASTER (amino acids 1-1013) cDNA was cloned in a mammalian cell expression vector. The functional role of COASTER was analyzed by cotransfection of U-2 OS cells with the COASTER expression plasmid in combination with a steroid receptor expressing plasmid, and a plasmid containing a luciferase reporter gene under control of a hormone responsive element. Following transfection, cells were stimulated with the appropriate hormone for the receptor under study.
(§2) U-2 OS cells were transiently transfected with pNGV1.ERβ and p4ERE-TATA-LUC (1), pNGV1.ERα and p4ERE-TATA-LUC (2), pKCRE.PR and pMMTV-LUC (3) or pNGV1.GR and pMMTV-LUC (4). Where indicated, COASTER expression construct pCDNA3.1HISC.COASTER was added to the transfection mixture. Following transfection, cell were incubated with the hormones indicated in the top row. […] Org 2058=16α-ethyl-21-hydroxy-19-norpregn-4-ene-3,20-dione.
(§3) Initially, a plasmid encoding a truncated form of COASTER (pACT2.COASTERΔ, amino acids 1-234) was isolated in the yeast two hybrid screen. […] The 5′ end of the COASTER (amino acid 1 to 332) was amplified by PCR on human-testis Marathon Ready cDNA (Clontech, Palo Alto, USA, cat.#7414-1) using primers […] […]

A further assay deals with ERβ and COASTER (Homo sapiens, UniProt Q92731). As to the kind of experiment: Yeast two-hybrid assay, β-galactosidase reporter, ERβ with COASTER amino acids 1-234. The format is cell-based. As to conditions: yeast AH109, pGBT9.ERβ + pACT2.COASTERΔ; 10^−8 M 17β-estradiol, 10^−5 M raloxifen.
ERβ and COASTER, sequence (Q92731 whole entry, the tested form may be a part): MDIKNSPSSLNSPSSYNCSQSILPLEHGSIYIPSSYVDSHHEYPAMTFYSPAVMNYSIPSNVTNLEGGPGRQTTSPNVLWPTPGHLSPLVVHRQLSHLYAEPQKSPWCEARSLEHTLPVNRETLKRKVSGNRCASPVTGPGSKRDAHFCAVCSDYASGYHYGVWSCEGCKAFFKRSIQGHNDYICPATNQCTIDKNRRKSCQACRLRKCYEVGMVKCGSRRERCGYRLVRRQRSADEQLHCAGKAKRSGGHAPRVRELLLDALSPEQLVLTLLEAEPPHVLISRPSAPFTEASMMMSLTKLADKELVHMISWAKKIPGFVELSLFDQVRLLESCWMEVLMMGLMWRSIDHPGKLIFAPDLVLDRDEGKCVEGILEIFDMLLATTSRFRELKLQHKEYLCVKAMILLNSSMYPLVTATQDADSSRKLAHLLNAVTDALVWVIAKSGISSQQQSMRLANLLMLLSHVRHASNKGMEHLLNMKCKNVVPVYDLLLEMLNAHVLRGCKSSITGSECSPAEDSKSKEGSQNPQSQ
The target of assay [1] is progesterone receptor (PR) (Homo sapiens, UniProt P06401). As to the kind of experiment: Transient transfection of U-2 OS cells with PR and pMMTV-LUC reporter, with or without COASTER. The class given is cell-based. Conditions: 10^−8 M ligand, ± SD triplicate. The method, then:
as §1, §2, §3

The target of assay [2] is human estrogen receptor β, expressed from pNGV1.ERβ in U-2 OS cells (human) (UniProt Q92731). As to the kind of experiment: cell-based or functional assay.
human estrogen receptor β, expressed from pNGV1.ERβ in U-2 OS cells (human), sequence (Q92731 whole entry): as the sequence (Q92731 whole entry, the tested form may be a part) above
Assay [3] has as its target progesterone receptor, expressed from pKCRE.PR in U-2 OS cells. As to the kind of experiment: cell-based or functional assay.
For assay [4], the target named is glucocorticoid receptor, expressed from pNGV1.GR in U-2 OS cells (human) (UniProt P04150). As to the kind of experiment: cell-based or functional assay.
glucocorticoid receptor, expressed from pNGV1.GR in U-2 OS cells (human), sequence (P04150 whole entry): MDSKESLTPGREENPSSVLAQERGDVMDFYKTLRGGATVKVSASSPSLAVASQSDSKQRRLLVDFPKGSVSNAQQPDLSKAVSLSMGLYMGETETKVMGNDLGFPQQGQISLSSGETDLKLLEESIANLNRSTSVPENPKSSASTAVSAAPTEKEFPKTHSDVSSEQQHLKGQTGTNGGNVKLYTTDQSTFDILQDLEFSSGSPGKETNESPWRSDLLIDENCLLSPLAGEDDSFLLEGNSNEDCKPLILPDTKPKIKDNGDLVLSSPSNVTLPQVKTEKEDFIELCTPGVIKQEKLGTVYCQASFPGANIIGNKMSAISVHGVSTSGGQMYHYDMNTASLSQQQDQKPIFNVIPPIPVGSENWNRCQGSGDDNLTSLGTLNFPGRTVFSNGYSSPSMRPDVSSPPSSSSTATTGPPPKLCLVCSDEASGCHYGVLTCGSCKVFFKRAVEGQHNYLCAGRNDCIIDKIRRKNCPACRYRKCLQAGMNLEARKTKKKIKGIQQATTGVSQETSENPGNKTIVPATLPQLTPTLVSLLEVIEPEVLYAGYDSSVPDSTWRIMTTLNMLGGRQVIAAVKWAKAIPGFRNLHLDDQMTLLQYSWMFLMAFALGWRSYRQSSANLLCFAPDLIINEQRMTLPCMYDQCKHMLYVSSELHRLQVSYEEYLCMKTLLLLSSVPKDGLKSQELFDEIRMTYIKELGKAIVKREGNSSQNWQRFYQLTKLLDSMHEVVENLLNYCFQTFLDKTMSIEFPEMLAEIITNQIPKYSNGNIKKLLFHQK

progesterone receptor (PR), sequence (P06401 whole entry, species assumed): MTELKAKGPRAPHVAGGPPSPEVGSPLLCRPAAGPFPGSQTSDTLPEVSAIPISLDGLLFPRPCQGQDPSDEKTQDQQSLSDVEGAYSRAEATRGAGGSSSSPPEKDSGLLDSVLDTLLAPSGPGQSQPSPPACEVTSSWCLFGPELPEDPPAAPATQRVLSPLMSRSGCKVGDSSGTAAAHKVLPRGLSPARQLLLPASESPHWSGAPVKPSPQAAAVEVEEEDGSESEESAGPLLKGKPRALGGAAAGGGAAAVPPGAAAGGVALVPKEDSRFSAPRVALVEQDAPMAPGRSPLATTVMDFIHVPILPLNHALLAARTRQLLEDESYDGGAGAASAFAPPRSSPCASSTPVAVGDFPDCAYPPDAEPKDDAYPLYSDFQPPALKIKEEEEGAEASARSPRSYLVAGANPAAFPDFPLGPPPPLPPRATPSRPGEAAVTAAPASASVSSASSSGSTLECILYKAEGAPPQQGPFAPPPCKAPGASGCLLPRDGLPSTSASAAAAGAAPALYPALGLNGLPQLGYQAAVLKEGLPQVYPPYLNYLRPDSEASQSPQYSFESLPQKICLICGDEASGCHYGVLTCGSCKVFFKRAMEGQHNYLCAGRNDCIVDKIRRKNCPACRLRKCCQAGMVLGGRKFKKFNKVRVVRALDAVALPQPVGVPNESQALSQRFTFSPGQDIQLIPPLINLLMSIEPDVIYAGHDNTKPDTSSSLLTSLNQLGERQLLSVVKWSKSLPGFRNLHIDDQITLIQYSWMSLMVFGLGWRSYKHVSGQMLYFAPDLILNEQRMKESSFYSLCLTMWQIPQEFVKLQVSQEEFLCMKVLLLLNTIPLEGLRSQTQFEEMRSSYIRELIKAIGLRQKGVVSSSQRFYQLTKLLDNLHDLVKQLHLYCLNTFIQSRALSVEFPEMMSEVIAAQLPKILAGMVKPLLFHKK
T1 sequence (Q92731 whole entry): as the sequence (Q92731 whole entry, the tested form may be a part) above

`C[C@]12CC[C@@H]3c4ccc(O)cc4CC[C@H]3[C@@H]1CC[C@@H]2O` [17β-estradiol]: the luciferase activity came to 8200 ± 819 on ERβ (pNGV1.ERβ + p4ERE-TATA-LUC + COASTER) and 500 ± 109 at ERβ (pNGV1.ERβ + p4ERE-TATA-LUC, no COASTER). For the same molecule, the “β-galactosidase reporter activity (ERβ-COASTER interaction, FIG. 3)” value on ERβ and COASTER is listed as “dose-dependent induction”. The “signalling via the ERα/β chimera” value in the assay with ERα/β chimera was “able to signal”.

For the molecule `CC[C@@H]1C[C@H]2[C@@H]3CCC4=CC(=O)CC[C@@H]4[C@H]3CC[C@]2(C)[C@H]1C(=O)CO` [Org 2058, 16α-ethyl-21-hydroxy-19-norpregn-4-ene-3,20-dione], the luciferase activity in assay [1] (pKCRE.PR + pMMTV-LUC + COASTER) was determined as 3229 ± 683; in assay [1] (pKCRE.PR + pMMTV-LUC, no COASTER) it was 822 ± 112.

`O=C(c1ccc(OCCN2CCCCC2)cc1)c1c(-c2ccc(O)cc2)sc2cc(O)ccc12` [raloxifen]: in the assay on ERα/β chimera, the “signalling via the ERα/β chimera” value is given as “able to signal”.

In assay [2], “full length COASTER (amino acids 1-1013), expressed from pCDNA3.1HISC.COASTER (from UniProt Q9Y4E5 1-1013)” registered a luciferase activity, p4ERE-TATA-LUC in U-2 OS cells, 10^-8 M 17β-estradiol (luciferase activity) of 8200; a luciferase activity, p4ERE-TATA-LUC in U-2 OS cells, 10^-8 M ICI 164,384 (luciferase activity) of 101; a luciferase activity, p4ERE-TATA-LUC in U-2 OS cells, no hormone (luciferase activity) of 133. In assay [3], this molecule gave a luciferase activity, pMMTV-LUC in U-2 OS cells, 10^-8 M Org 2058 (luciferase activity) of 3230 and a luciferase activity, pMMTV-LUC in U-2 OS cells, no hormone (luciferase activity) of 81. In assay [4], this molecule returned a luciferase activity, pMMTV-LUC in U-2 OS cells, 10^-8 M Dexamethasone (luciferase activity) of 35200 and a luciferase activity, pMMTV-LUC in U-2 OS cells, no hormone (luciferase activity) of 103.

Values taken from US7354728B2, “Coactivation of nuclear receptors” (N.V. Organon, priority 2000, dated 2008).
